From patent US10519162B2, “6,7-dihydropyrazolo[1,5-α]pyrazin-4(5H)-one compounds and their use as negative allosteric modulators of mGluR2 receptors” (Janssen Pharmaceutica NV, priority 2014, dated 2019) come the findings set out here.

One series addresses T1, human mGlu2 receptor (Homo sapiens, UniProt Q14416).
T1 construct: expressed in transfected cells; host or cells: CHO cells
Put plainly: [35S]GTPγS binding assay (mGluR2 negative allosteric modulation, glutamate ~EC80 60 μM). Conditions: for Emax: read-out: GTPγS-hmGluR2 anGT Emax; for IC50: membranes from CHO cells transfected with human mGlu2 receptor, glutamate ~EC80 (60 μM), pIC50 = −log IC50 (M), read-out: GTPγS-hmGluR2 anGT pIC50 (converted). Type of series: biochemical. Here is the method:
1) [^35S]GTPγS Binding Assay
[^35S]GTPγS Binding Assay
Total reaction volume was 200 μl. […] Membrane-bound radioactivity was counted in a Topcount.
A general note: Binding of GTPγS marks nucleotide exchange on a G protein.

Where [1] appears, read: maximal % inhibition relative to the control glutamate response (EC80 glutamate).

T1 sequence (Q14416 19-872): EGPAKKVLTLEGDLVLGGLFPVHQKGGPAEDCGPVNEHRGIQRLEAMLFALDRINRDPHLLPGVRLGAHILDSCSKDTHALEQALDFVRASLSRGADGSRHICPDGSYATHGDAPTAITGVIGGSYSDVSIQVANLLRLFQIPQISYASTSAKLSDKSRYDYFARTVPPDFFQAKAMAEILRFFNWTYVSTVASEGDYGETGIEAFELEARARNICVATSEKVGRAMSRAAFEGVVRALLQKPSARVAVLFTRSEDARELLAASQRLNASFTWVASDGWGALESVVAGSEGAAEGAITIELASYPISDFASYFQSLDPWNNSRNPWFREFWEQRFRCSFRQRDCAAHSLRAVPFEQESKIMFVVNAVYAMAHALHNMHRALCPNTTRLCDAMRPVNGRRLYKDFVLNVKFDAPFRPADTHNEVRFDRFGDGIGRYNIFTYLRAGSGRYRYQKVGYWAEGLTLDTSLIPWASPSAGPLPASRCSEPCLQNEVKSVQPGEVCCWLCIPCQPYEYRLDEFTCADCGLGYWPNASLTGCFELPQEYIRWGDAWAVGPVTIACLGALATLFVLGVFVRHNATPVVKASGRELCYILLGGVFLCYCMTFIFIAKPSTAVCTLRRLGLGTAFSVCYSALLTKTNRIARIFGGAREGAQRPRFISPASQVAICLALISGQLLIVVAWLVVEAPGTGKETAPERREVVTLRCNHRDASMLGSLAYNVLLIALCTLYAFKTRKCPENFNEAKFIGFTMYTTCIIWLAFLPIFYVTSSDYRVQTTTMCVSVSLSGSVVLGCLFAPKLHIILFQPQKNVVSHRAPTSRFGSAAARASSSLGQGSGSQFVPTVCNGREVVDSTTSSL

`COc1c(F)cccc1C(=O)Nc1cnn2c1C(=O)N(c1ccc(C(F)(F)F)cc1)C[C@@H]2C` [Co. No. 19]: the melting point (in general, the temperature of the solid-liquid transition) stood at 170.98 °C. The Emax – broadly, the size of the effect at its maximum, as opposed to the concentration needed – at human mGlu2 receptor (setting [1]) worked out at 117%. For the same compound, the IC50 on human mGlu2 receptor was 4.37e-09 M.

`COc1cccc(C(=O)Nc2cnn3c2C(=O)N(c2ccc(C(F)(F)F)cc2)C[C@@H]3C)n1` [Co. No. 21] had a melting point of 199.24 °C. Besides, the Emax on human mGlu2 receptor (setting [1]) is 106%. Besides, the IC50 at human mGlu2 receptor is 4.68e-09 M.

Regarding `COc1ccc(C(=O)Nc2cnn3c2C(=O)N(c2ccc(C(F)(F)F)cc2)C[C@@H]3C)cc1F` [Co. No. 23], the melting point was 152.43 °C. The maximal effect (Emax) on human mGlu2 receptor (setting [1]) is 105%. For the same compound, the IC50 on human mGlu2 receptor is 5.5e-09 M.

Regarding `COc1ccc(C(=O)Nc2cnn3c2C(=O)N(c2ccc(C(F)(F)F)cc2)C[C@@H]3C)cc1` [Co. No. 25], the melting point is 164.82 °C. Also, at human mGlu2 receptor (setting [1]), the Emax came out at 104%. For the same compound, on human mGlu2 receptor, the IC50 was 6.17e-09 M.

`C[C@H]1CN(c2ccc(C(F)(F)F)cc2)C(=O)c2c(NC(=O)c3cncc(F)c3)cnn21` [Co. No. 31] had a melting point of 185.29 °C. The maximal effect (Emax) on human mGlu2 receptor (setting [1]) is 114%. Further, the IC50 on human mGlu2 receptor was 7.24e-09 M.

On to `COc1nc(N2C[C@H](C)n3ncc(NC(=O)c4ccc(N)nc4)c3C2=O)ccc1C(F)(F)F` [Co. No. 33], for which the melting point worked out at 250.03 °C. In addition, at human mGlu2 receptor (setting [1]), the Emax amounted to 117%. Also, the IC50 on human mGlu2 receptor is 7.59e-09 M.

Consider `COc1ccc(F)c(C(=O)Nc2cnn3c2C(=O)N(c2ccc(C(F)(F)F)cc2)C[C@@H]3C)c1` [Co. No. 37], for which the melting point turned out to be 185.41 °C. The Emax on human mGlu2 receptor (setting [1]) turned out to be 116%. The IC50 at human mGlu2 receptor is 9.12e-09 M.

Compound `C[C@H]1CN(c2ccc(C(F)F)c(Cl)c2)C(=O)c2c(NC(=O)c3ccc(N)nc3)cnn21` [Co. No. 40] registered a melting point of 133.34 °C. Moreover, the “GTPγS-hmGluR2 anGT Emax” value on human mGlu2 receptor (setting [1]) came out at 113%.

On to `COc1ccc(C(=O)Nc2cnn3c2C(=O)N(c2ccc(C(F)(F)F)cc2)C[C@@H]3C)cn1` [Co. No. 42], for which the melting point worked out at 127.02 °C. For the same compound, the Emax on human mGlu2 receptor (setting [1]) was 105%. Also, the IC50 at human mGlu2 receptor is 1.1e-08 M.

`COc1ncccc1C(=O)Nc1cnn2c1C(=O)N(c1ccc(C(F)(F)F)cc1)C[C@@H]2C` [Co. No. 43]: the melting point came to 213.83 °C. Also, the Emax at human mGlu2 receptor (setting [1]) was determined as 114%. In addition, the IC50 on human mGlu2 receptor was 1.12e-08 M.

As for `COc1ccc(C(=O)Nc2cnn3c2C(=O)N(c2ccc(C(F)(F)F)cc2)C[C@@H]3C)c(F)c1` [Co. No. 44], the melting point came out at 214.58 °C. Moreover, on human mGlu2 receptor (setting [1]), the Emax came out at 115%. Moreover, the IC50 on human mGlu2 receptor is 1.12e-08 M.

Take `C[C@H]1CN(c2ccc(C(F)(F)F)cc2)C(=O)c2c(NC(=O)c3ccc(Cl)cn3)cnn21` [Co. No. 46]: the melting point was 237.65 °C. Moreover, the Emax at human mGlu2 receptor (setting [1]) came to 104%. Moreover, the IC50 on human mGlu2 receptor was 1.26e-08 M.

As for `COc1cc(C(=O)Nc2cnn3c2C(=O)N(c2ccc(C(F)(F)F)cc2)C[C@@H]3C)ccn1` [Co. No. 47], the melting point came out at 128.68 °C. For the same compound, the maximal effect (Emax) on human mGlu2 receptor (setting [1]) was 101%. Besides, the IC50 on human mGlu2 receptor is 1.29e-08 M.

`C[C@H]1CN(c2ccc(C(F)(F)F)cc2)C(=O)c2c(NC(=O)c3ccc(F)cn3)cnn21` [Co. No. 48] came in with a melting point of 221.22 °C. Moreover, the Emax on human mGlu2 receptor (setting [1]) was 108%. Moreover, the IC50 at human mGlu2 receptor is 1.32e-08 M.

`C[C@H]1CN(c2ccc(C(F)(F)F)cc2)C(=O)c2c(NC(=O)c3ccc(F)cc3)cnn21` [Co. No. 49] had a melting point of 119.36 °C. The Emax on human mGlu2 receptor (setting [1]) stood at 101%. Moreover, the IC50 at human mGlu2 receptor is 1.32e-08 M.

In turn, `C[C@H]1CN(c2ccc(C(F)(F)F)cc2)C(=O)c2c(NC(=O)c3ccnc(N)c3)cnn21` [Co. No. 50] displayed a melting point of 225.63 °C. At human mGlu2 receptor (setting [1]), the Emax worked out at 104%. Moreover, at human mGlu2 receptor, the IC50 is 1.38e-08 M.

Turning to `COc1cc(C(=O)Nc2cnn3c2C(=O)N(c2ccc(C(F)(F)F)cc2)C[C@@H]3C)ccc1F` [Co. No. 51], the melting point was 140.98 °C. Moreover, on human mGlu2 receptor (setting [1]), the Emax was 113%. The IC50 on human mGlu2 receptor is 1.45e-08 M.

Compound `Cc1ccc(C(=O)Nc2cnn3c2C(=O)N(c2ccc(C(F)(F)F)cc2)C[C@@H]3C)cc1` [Co. No. 53] had a melting point of 198.98 °C. At human mGlu2 receptor (setting [1]), the Emax came out at 104%. Also, the IC50 on human mGlu2 receptor was 1.78e-08 M.

Take `Cc1ccc(C(=O)Nc2cnn3c2C(=O)N(c2ccc(C(F)(F)F)cc2)C[C@@H]3C)cn1` [Co. No. 54]: the melting point turned out to be 175.17 °C. Also, the maximum response (Emax) on human mGlu2 receptor (setting [1]) was found to be 104%. In addition, the IC50 on human mGlu2 receptor was 1.78e-08 M.

In the case of `C[C@H]1CN(c2ccc(C(F)(F)F)cc2)C(=O)c2c(NC(=O)c3ccncc3)cnn21` [Co. No. 55], the melting point amounted to 145.26 °C. The Emax at human mGlu2 receptor (setting [1]) came out at 105%. Further, the IC50 on human mGlu2 receptor was 2e-08 M.

`COc1cccc(C(=O)Nc2cnn3c2C(=O)N(c2ccc(C(F)(F)F)c(OC)n2)C[C@@H]3C)c1` [Co. No. 56] gave a melting point of 160.66 °C. For the same compound, at human mGlu2 receptor (setting [1]), the Emax worked out at 107%. The IC50 on human mGlu2 receptor was 2.04e-08 M.

Take `Cc1cccnc1C(=O)Nc1cnn2c1C(=O)N(c1ccc(C(F)(F)F)cc1)C[C@@H]2C` [Co. No. 57]: the melting point worked out at 292.16 °C. For the same compound, the maximum response (Emax) at human mGlu2 receptor (setting [1]) was found to be 103%. Moreover, the IC50 at human mGlu2 receptor is 2.04e-08 M.

Take `COc1cc(F)ccc1C(=O)Nc1cnn2c1C(=O)N(c1ccc(C(F)(F)F)cc1)C[C@@H]2C` [Co. No. 58]: the melting point stood at 240.77 °C. Further, on human mGlu2 receptor (setting [1]), the Emax was determined as 101%. The IC50 at human mGlu2 receptor is 2.19e-08 M.

`COc1cccc(C(=O)Nc2cnn3c2C(=O)N(c2ccc(C(F)(F)F)cc2)C[C@@H]3C)c1F` [Co. No. 59] showed a melting point of 205.32 °C. At human mGlu2 receptor (setting [1]), the Emax amounted to 110%. Moreover, the IC50 on human mGlu2 receptor is 2.24e-08 M.

Consider `COc1ccnc(C(=O)Nc2cnn3c2C(=O)N(c2ccc(C(F)(F)F)cc2)C[C@@H]3C)c1` [Co. No. 60], for which the melting point came out at 227.69 °C. The Emax at human mGlu2 receptor (setting [1]) turned out to be 111%. The IC50 on human mGlu2 receptor was 2.45e-08 M.

As to `C[C@H]1CN(c2ccc(C(F)(F)F)cn2)C(=O)c2c(NC(=O)c3ccc(N)nc3)cnn21` [Co. No. 61], the melting point turned out to be 223.46 °C. In addition, the Emax on human mGlu2 receptor (setting [1]) came out at 103%. Also, the IC50 on human mGlu2 receptor is 2.45e-08 M.

Compound `C[C@H]1CN(c2ccc(C(F)(F)F)cc2)C(=O)c2c(NC(=O)c3ncco3)cnn21` [Co. No. 63, N-[(7S)-7-Methyl-4-oxo-5-[4-(trifluoromethyl)phenyl]-6,7-dihydropyrazolo[1,5-a]pyrazin-3-yl]oxazole-2-carboxamide] displayed a melting point of 204.97 °C. Moreover, the maximum response (Emax) on human mGlu2 receptor (setting [1]) is 109%. Further, the IC50 at human mGlu2 receptor was 2.63e-08 M.

Regarding `Cc1ncccc1C(=O)Nc1cnn2c1C(=O)N(c1ccc(C(F)(F)F)cc1)C[C@@H]2C` [Co. No. 66], the melting point turned out to be 120.37 °C. Also, on human mGlu2 receptor (setting [1]), the Emax was 104%. Besides, the IC50 at human mGlu2 receptor was 2.75e-08 M.

The compound `C[C@H]1CN(c2ccc(C(F)(F)F)cc2)C(=O)c2c(NC(=O)c3ccc(N)cn3)cnn21` [Co. No. 68, 5-Amino-N-[(7S)-7-methyl-4-oxo-5-[4-(trifluoromethyl)phenyl]-6,7-dihydropyrazolo[1,5-a]pyrazin-3-yl]pyridine-2-carboxamide] came in with a melting point of 289.4 °C. In addition, the Emax on human mGlu2 receptor (setting [1]) came out at 107%. Moreover, the IC50 on human mGlu2 receptor is 2.82e-08 M.

For `COc1nc(N2C[C@H](C)n3ncc(NC(=O)c4ccccc4)c3C2=O)ccc1C(F)(F)F` [Co. No. 70], the melting point is 201.06 °C. Further, the Emax at human mGlu2 receptor (setting [1]) came to 108%. For the same compound, the IC50 at human mGlu2 receptor is 3.8e-08 M.

In the case of `Cc1cc(C(=O)Nc2cnn3c2C(=O)N(c2ccc(C(F)(F)F)cc2)C[C@@H]3C)on1` [Co. No. 71], the melting point was 243.14 °C. Besides, the Emax at human mGlu2 receptor (setting [1]) amounted to 97%. For the same compound, the IC50 on human mGlu2 receptor was 3.8e-08 M.

Compound `Cc1cc(C(=O)Nc2cnn3c2C(=O)N(c2ccc(C(F)(F)F)cc2)C[C@@H]3C)no1` [Co. No. 72] yielded a melting point of 209.27 °C. The Emax on human mGlu2 receptor (setting [1]) amounted to 99%. Besides, the IC50 on human mGlu2 receptor was 4.27e-08 M.

Regarding `C[C@H]1CN(c2ccc(C(F)(F)F)cc2)C(=O)c2c(NC(=O)CC3CC3)cnn21` [Co. No. 73], the melting point was determined as 152.2 °C. The maximum response (Emax) on human mGlu2 receptor (setting [1]) is 98%. Further, at human mGlu2 receptor, the IC50 was 4.79e-08 M.

`C[C@H]1CN(c2ccc(C(F)(F)F)cc2)C(=O)c2c(NC(=O)c3cnc(N)s3)cnn21` [Co. No. 74, 2-Amino-N-[(7S)-7-methyl-4-oxo-5-[4-(trifluoromethyl)phenyl]-6,7-dihydropyrazolo[1,5-a]pyrazin-3-yl]thiazole-5-carboxamide] showed a melting point of 283.48 °C. On human mGlu2 receptor (setting [1]), the Emax amounted to 113%. Besides, the IC50 at human mGlu2 receptor is 3.39e-08 M.

On to `COc1ccccc1C(=O)Nc1cnn2c1C(=O)N(c1ccc(C(F)(F)F)c(OC)n1)C[C@@H]2C` [Co. No. 75], for which the melting point is 231.11 °C. Moreover, the maximal effect (Emax) on human mGlu2 receptor (setting [1]) came out at 103%. On human mGlu2 receptor, the IC50 is 5.37e-08 M.

Compound `COc1nc(N2C[C@H](C)n3ncc(NC(=O)c4ccccc4)c3C2=O)ccc1Cl` [Co. No. 76, N-[(7S)-5-(5-Chloro-6-methoxy-2-pyridyl)-7-methyl-4-oxo-6,7-dihydropyrazolo[1,5-a]pyrazin-3-yl]benzamide] yielded a melting point of 188.77 °C. Further, the Emax at human mGlu2 receptor (setting [1]) was determined as 106%. In addition, the IC50 at human mGlu2 receptor was 5.89e-08 M.

`COc1ccc(C(=O)Nc2cnn3c2C(=O)N(c2ccc(C(F)(F)F)c(OC)n2)C[C@@H]3C)cc1` [Co. No. 77] showed a melting point of 194.9 °C. For the same compound, the maximal effect (Emax) on human mGlu2 receptor (setting [1]) stood at 103%. At human mGlu2 receptor, the IC50 was 7.76e-08 M.

`COCc1ccccc1C(=O)Nc1cnn2c1C(=O)N(c1ccc(C(F)(F)F)cc1)C[C@@H]2C` [Co. No. 78] had a melting point of 88.18 °C. Further, on human mGlu2 receptor (setting [1]), the maximum response (Emax) came to 105%. Moreover, the IC50 on human mGlu2 receptor is 5.62e-08 M.
